# Assay results as given in patent publication US7642277B2, “Non-nucleoside reverse transcriptase inhibitors” (Boehringer Ingelheim International GmbH, priority 2002, dated 2010).
# Target: T1, HIV-1 RT enzyme (wild type) (Human immunodeficiency virus type 1 group M subtype B, UniProt P04585)
# T1 construct: The reverse transcriptase (RT) enzyme assay has been adapted to a 96-well microtiter plate format
# Assay: Reverse transcriptase (RT) enzymatic assay (IC50), PicoGreen fluorescence, wild type
# Format: biochemical
# Details: RT enzymatic assay, wild type; read-out: IC50 WT
# Protocol: Reverse Transcriptase (RT) Assays Enzymatic Assay (IC50)
# The enzymatic assay employed is described as follows: The reverse transcriptase (RT) enzyme assay has been adapted to a 96-well microtiter plate format and uses PicoGreen™ as a fluorescent intercalator. More explicitly, the HIV-1 RT enzyme was thawed and appropriately diluted into Tris/HCl 50 mM pH 7.8 containing NaCl 60 mM, MgCl2∘6H2O 2 mM, DTT 6 mM, GSH 2 mM and 0.02% w/v Chaps to give ≈10 nM enzyme. […] The plate was pre-incubated for 15 minutes at room temperature before proceeding to the next step. […] Then the enzymatic reaction was initiated by addition of 20 μL of substrate solution. […] After addition of the substrate cocktail, the plate was covered with a plastic seal and incubated for 50 minutes at 37° C. in a dry incubator. The reaction was then quenched by addition of 5 μL of EDTA 0.5 M. The plate was shaken for 30 seconds at medium speed and incubated for 5 minutes at room temperature. Then 160 μL of PicoGreen™ 1:400 dilution from commercial stock (diluted in Tris 20 mM pH 7.5 with EDTA 1 mM) was added and the plate was shaken for 30 seconds and incubated for 10 minutes at room temperature. […] Each row contained at its extremities a blank and a control well.
# Table legend: A=>100; B=100-50; C=<50; NT=not tested
row,Structure (SMILES),IC50
1,O=C(CSc1nnnn1-c1cccc2ncccc12)Nc1ccccc1[N+](=O)[O-] [Entry 106],> 0.1 µM
2,O=C(CSc1nnnn1Cc1ccc2ccccc2c1)Nc1ccccc1[N+](=O)[O-] [Entry 107],> 0.1 µM
3,COC(=O)c1cccc(-n2nnnc2SCC(=O)Nc2ccccc2[N+](=O)[O-])c1 [Entry 120],> 0.1 µM
4,COc1ccc(-n2nnnc2SCC(=O)Nc2ccccc2[N+](=O)[O-])c(OC)c1 [Entry 131],> 0.1 µM
5,Cc1ccccc1-c1ccc(-n2nnnc2SCC(=O)Nc2ccccc2[N+](=O)[O-])c(C)c1 [Entry 132],> 0.1 µM
6,Cc1cccc(C)c1-n1nnnc1SCC(=O)Nc1ccccc1[N+](=O)[O-] [Entry 138],> 0.1 µM
7,CCc1ccccc1NC(=O)CSc1nnnn1-c1cccc2ccccc12 [Entry 203],> 0.1 µM
8,CC(C)c1ccccc1NC(=O)CSc1nnnn1-c1cccc2ccccc12 [Entry 204],> 0.1 µM
9,O=C(CSc1nnnn1-c1cccc2ccccc12)Nc1ccccc1Cc1ccccc1 [Entry 205],> 0.1 µM
10,O=C(CSc1nnnn1-c1cccc2ccccc12)Nc1ccccc1-c1ccccc1 [Entry 206],> 0.1 µM
11,O=C(CSc1nnnn1-c1cccc2ccccc12)Nc1ccccc1F [Entry 207],> 0.1 µM
12,COc1ccccc1NC(=O)CSc1nnnn1-c1cccc2ccccc12 [Entry 212],> 0.1 µM
13,CCOc1ccccc1NC(=O)CSc1nnnn1-c1cccc2ccccc12 [Entry 213],> 0.1 µM
14,O=C(CSc1nnnn1-c1cccc2ccccc12)Nc1ccccc1C(F)(F)F [Entry 214],> 0.1 µM
15,CC(=O)c1ccccc1NC(=O)CSc1nnnn1-c1cccc2ccccc12 [Entry 215],> 0.1 µM
16,COC(=O)c1ccccc1NC(=O)CSc1nnnn1-c1cccc2ccccc12 [Entry 216],> 0.1 µM
17,NC(=O)c1ccccc1NC(=O)CSc1nnnn1-c1cccc2ccccc12 [Entry 217],> 0.1 µM
18,CSc1ccccc1NC(=O)CSc1nnnn1-c1cccc2ccccc12 [Entry 218],> 0.1 µM
19,NS(=O)(=O)c1ccccc1NC(=O)CSc1nnnn1-c1cccc2ccccc12 [Entry 220],> 0.1 µM
20,O=C(CSc1nnnn1-c1cccc2ccccc12)Nc1ccccc1N1CCOCC1 [Entry 221],> 0.1 µM
21,O=C(CSc1nnnn1-c1cccc2ccccc12)Nc1ccccc1-n1cccc1 [Entry 222],> 0.1 µM
22,O=C(CSc1nnnn1-c1cccc2ccccc12)Nc1cccc([N+](=O)[O-])c1 [Entry 223],> 0.1 µM
23,COc1ccc(NC(=O)CSc2nnnn2-c2cccc3ccccc23)cc1 [Entry 224],> 0.1 µM
24,O=C(CSc1nnnn1-c1cccc2ccccc12)Nc1ccc(O)cc1 [Entry 225],> 0.1 µM
25,O=C(CSc1nnnn1-c1cccc2ccccc12)Nc1ccc(-c2ccccc2)cc1 [Entry 226],> 0.1 µM
26,O=C(CSc1nnnn1-c1cccc2ccccc12)Nc1ccc([N+](=O)[O-])cc1 [Entry 227],> 0.1 µM
27,Cc1cccc(NC(=O)CSc2nnnn2-c2cccc3ccccc23)c1C [Entry 228],> 0.1 µM

row,Structure (SMILES),IC50
1,O=C(CSc1nnnn1-c1cccc2ccccc12)Nc1cccc2c1CCCC2 [Entry 229],> 0.1 µM
2,O=C(CSc1nnnn1-c1cccc2ccccc12)Nc1cccc(Cl)c1F [Entry 232],> 0.1 µM
3,Cc1ccc(NC(=O)CSc2nnnn2-c2cccc3ccccc23)c(C)c1 [Entry 233],> 0.1 µM
4,O=C(CSc1nnnn1-c1cccc2ccccc12)Nc1c(Cl)cccc1Cl [Entry 241],> 0.1 µM
5,COc1cc(NC(=O)CSc2nnnn2-c2cccc3ccccc23)cc(OC)c1 [Entry 242],> 0.1 µM
6,O=C(CSc1nnnn1-c1cccc2ccccc12)Nc1ccccn1 [Entry 243],> 0.1 µM
7,O=C(CSc1nnnn1-c1cccc2ccccc12)Nc1cccnc1 [Entry 244],> 0.1 µM
8,O=C(CSc1nnnn1-c1cccc2ccccc12)Nc1ccncc1 [Entry 245],> 0.1 µM
9,O=C(CNc1nnnn1-c1cccc2ccccc12)Nc1ccccc1[N+](=O)[O-] [Entry 303],> 0.1 µM
10,O=C(CCCc1nnnn1-c1cccc2ccccc12)Nc1ccccc1Cl [Entry 305],> 0.1 µM
11,O=C(CCCc1nnnn1-c1cccc2ccccc12)Nc1ccccc1[N+](=O)[O-] [Entry 306],> 0.1 µM
12,O=C(C=Cc1nnnn1-c1cccc2ccccc12)Nc1ccccc1[N+](=O)[O-] [Entry 307],> 0.1 µM
13,O=[N+]([O-])c1ccccc1C(O)CSc1nnnn1-c1cccc2ccccc12 (stereo not shown) [Entry 309],> 0.1 µM
14,O=[N+]([O-])c1ccccc1CCSc1nnnn1-c1cccc2ccccc12 [Entry 310],> 0.1 µM
15,Clc1ccccc1CCCSc1nnnn1-c1cccc2ccccc12 [Entry 311],> 0.1 µM
16,O=[N+]([O-])c1ccccc1/C=C/CSc1nnnn1-c1cccc2ccccc12 [Entry 312],> 0.1 µM
17,Clc1ccccc1/C=C/CSc1nnnn1-c1cccc2ccccc12 [Entry 313],> 0.1 µM
18,OC(CSc1nnnn1-c1cccc2ccccc12)C(O)c1ccccc1Cl (stereo not shown) [Entry 319],> 0.1 µM
19,O=[N+]([O-])c1ccccc1OCCSc1nnnn1-c1cccc2ccccc12 [Entry 320],> 0.1 µM
20,Clc1ccccc1OCCSc1nnnn1-c1cccc2ccccc12 [Entry 321],> 0.1 µM
21,O=C(OCCSc1nnnn1-c1cccc2ccccc12)c1ccccc1[N+](=O)[O-] [Entry 322],> 0.1 µM
22,O=C(OCCSc1nnnn1-c1cccc2ccccc12)c1ccccc1Cl [Entry 323],> 0.1 µM
23,Clc1ccccc1OCCCSc1nnnn1-c1cccc2ccccc12 [Entry 324],> 0.1 µM
24,O=[N+]([O-])c1ccccc1NCCSc1nnnn1-c1cccc2ccccc12 [Entry 326],> 0.1 µM
25,CN(CCSc1nnnn1-c1cccc2ccccc12)c1ccccc1[N+](=O)[O-] [Entry 327],> 0.1 µM
26,O=[N+]([O-])c1ccccc1CNCCSc1nnnn1-c1cccc2ccccc12 [Entry 328],> 0.1 µM
27,O=[N+]([O-])c1ccccc1NCCCSc1nnnn1-c1cccc2ccccc12 [Entry 329],> 0.1 µM

row,Structure (SMILES),IC50
1,O=C(NCCSc1nnnn1-c1cccc2ccccc12)c1ccccc1Cl [Entry 331],> 0.1 µM
2,CN(CCSc1nnnn1-c1cccc2ccccc12)C(=O)c1ccccc1Cl [Entry 332],> 0.1 µM
3,O=C(NCCSc1nnnn1-c1cccc2ccccc12)Nc1ccccc1[N+](=O)[O-] [Entry 333],> 0.1 µM
4,O=C(NCCSc1nnnn1-c1cccc2ccccc12)Nc1ccccc1Cl [Entry 334],> 0.1 µM
5,O=C(CSCc1nnnn1-c1cccc2ccccc12)Nc1ccccc1[N+](=O)[O-] [Entry 335],> 0.1 µM
6,O=C(COCc1nnnn1-c1cccc2ccccc12)Nc1ccccc1[N+](=O)[O-] [Entry 336],> 0.1 µM
7,O=C(CNCc1nnnn1-c1cccc2ccccc12)Nc1ccccc1[N+](=O)[O-] [Entry 337],> 0.1 µM
8,CN(CC(=O)Nc1ccccc1[N+](=O)[O-])Cc1nnnn1-c1cccc2ccccc12 [Entry 338],> 0.1 µM
9,c1ccc2c(-n3nnnc3SCc3nc4ccccc4[nH]3)cccc2c1 [Entry 339],> 0.1 µM
10,O=[N+]([O-])c1cccc2[nH]c(CSc3nnnn3-c3cccc4ccccc34)nc12 [Entry 340],> 0.1 µM
11,O=C1c2ccccc2C(=O)N1CCSc1nnnn1-c1cccc2ccccc12 [Entry 341],> 0.1 µM
12,CN(C(=O)CSc1nnnn1-c1cccc2ccccc12)c1ccccc1Cl [Entry 342],> 0.1 µM
13,O=C(Nc1ccccc1[N+](=O)[O-])C1CC1c1nnnn1-c1cccc2ccccc12 (stereo not shown) [Entry 343],> 0.1 µM
14,O=C(CSc1nnnn1-c1cccc2ccccc12)NCc1ccccc1[N+](=O)[O-] [Entry 344],> 0.1 µM
15,O=C(CSc1nnnn1-c1cccc2ccccc12)Cc1ccccc1[N+](=O)[O-] [Entry 345],> 0.1 µM
16,O=C1C(Sc2nnnn2-c2cccc3ccccc23)CCN1c1ccccc1Cl (stereo not shown) [Entry 346],> 0.1 µM
17,O=C(CCC1=C(c2cccc3ccccc23)CCC1)Nc1ccccc1Cl [Entry 405],> 0.1 µM
18,O=C(C[S+]([O-])c1ccccc1-c1cccc2ccccc12)Nc1ccccc1Cl (stereo not shown) [Entry 407],> 0.1 µM
19,O=C(CS(=O)(=O)c1ccccc1-c1cccc2ccccc12)Nc1ccccc1Cl [Entry 408],> 0.1 µM
20,O=C(CCc1ccccc1-c1cccc2ccccc12)Nc1ccccc1Cl [Entry 410],> 0.1 µM
21,O=C(CSc1nc2ccccc2n1-c1ccccc1)Nc1ccccc1[N+](=O)[O-] [Entry 412],> 0.1 µM
22,Cc1ccccc1NC(=O)CSc1nccn1-c1cccc2ccccc12 [Entry 414],> 0.1 µM
23,COc1ccccc1NC(=O)CSc1nccn1-c1cccc2ccccc12 [Entry 415],> 0.1 µM
24,Cc1cc(C)c(-n2nnnc2SCC(=O)c2ccc3c(c2)OCO3)c(C)c1 [Entry 423],> 0.1 µM
25,O=C(CSc1ccccc1Br)Nc1ccccc1Cl [Entry 426],> 0.1 µM
